From ChEMBL document CHEMBL1201862, “PubChem BioAssay data set” (2004) come the findings set out here.

What all share (test): NCI tumour cell line growth inhibition, 48 h
Assay [1] relates to HOP-92.
The subject of assay [2] is NCI-H23.
Assay [3] deals with HT-29.
Assay [4] relates to BT-549.
Assay [5] concerns ACHN.
In assay [6] the test system is A549.
Assay [7] deals with SK-MEL-28.
Assay [8] concerns LOX IMVI.
For assay [9], the system named is M14.
Assay [10] relates to TK-10.
The test system of assay [11] is T47D.
In assay [12] the test system is HOP-62.
The subject of assay [13] is IGROV-1.
The test system of assay [14] is NCI-H522.
Assay [15] concerns SF-268.
The test system of assay [16] is SK-MEL-5.
Assay [17] concerns MCF7.
Assay [18] concerns HL-60.
In assay [19] the test system is RPMI-8226.

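Five compound concentrations were applied to cells in 96-well plates for 48 hours; endpoints were derived by simple linear interpolation of the resulting dose-response curve. Here, GI50 denotes the concentration required for 50% inhibition of growth.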 Activity calls are given as the source filed them. Cut-off read from the data, not from the text of the source: active = GI50 up to about 1.1 µM and inactive = higher.

For the compound `O=C(NCCO)c1ccc(Cl)cc1`, the GI50 in assay [1], in assay [2], in [3], in assay [4], in assay [5] and in assay [6] was > 100 µM (inactive) each time. For the same compound, the GI50 in [7], in [8], in assay [9], in assay [10], in assay [11] and in assay [12] was > 100 µM (inactive) each time. In addition, the GI50 in assay [13], in [14], in assay [15] and in [16] was > 100 µM (inactive) in each case.
As to `C=C1[C@@H]2CCC3[C@]4(C)C(CC[C@@]5(C)C(=O)O[C@H](O)[C@@H]45)[C@H](O)[C@]3(C2)[C@H]1OC1OC(CO)C(O)C(O)C1O` (some centres undefined), the GI50 in assay [2], in assay [17], in [3], in assay [18], in [4] and in [5] was > 50 µM (inactive) throughout. The GI50 in assay [6], in assay [7], in assay [8], in assay [9], in assay [10] and in [11] was > 50 µM (inactive) in each case. The GI50 was > 50 µM (inactive) in assay [12]; > 50 µM (inactive) in [13]; 8.81 µM (inactive) in assay [19]; > 50 µM (inactive) in [15]; > 50 µM (inactive) in assay [16].
On to `CCOC(=O)c1cc2c3c(c(C(C)=O)c(O)c2[nH]1)N(C(C)=O)CC3`, for which the GI50 in assay [2] was 46.9 µM (inactive); in assay [17] it was 55.8 µM (inactive); in assay [3], > 100 µM (inactive); in assay [18] it was 76.2 µM (inactive); in [4], 52 µM (inactive); in assay [5], 27.5 µM (inactive). The GI50 in assay [7] was 34.4 µM (inactive); in assay [8], > 100 µM (inactive); in assay [9], 76.6 µM (inactive); in assay [10] it was 40.6 µM (inactive); in assay [11], 46.7 µM (inactive); in assay [12] it was > 100 µM (inactive). In addition, the GI50 is 31.8 µM (inactive) in [13], 19.3 µM (inactive) in assay [19], 55.8 µM (inactive) in [15] and 52.7 µM (inactive) in assay [16].
In the case of `NCCC1(N)CCNCC1`, the GI50 was < 0.01 µM (active) in assay [1]; > 100 µM (inactive) in assay [2]; > 100 µM (inactive) in [3]; > 100 µM (inactive) in assay [18]; > 100 µM (inactive) in assay [4]; > 100 µM (inactive) in assay [5]. Moreover, the GI50 in [6] is > 100 µM (inactive); in assay [7] it was 48.4 µM (inactive); in assay [9] it was > 100 µM (inactive); in assay [10] it was > 100 µM (inactive); in assay [11], > 100 µM (inactive); in assay [13], > 100 µM (inactive). In addition, the GI50 in [19], in [14], in [15] and in assay [16] was > 100 µM (inactive) in each case.
Regarding `CN(Nc1cc(=O)[nH]c(=O)[nH]1)c1ccccc1`, the GI50 in [1], in assay [2], in assay [17], in assay [3], in [18] and in assay [4] was > 100 µM (inactive) in each case. Further, the GI50 in assay [5], in [6], in [7], in assay [8], in [9] and in assay [10] was > 100 µM (inactive) throughout. Besides, the GI50 in assay [11], in [12], in assay [13], in [19], in [15] and in assay [16] was > 100 µM (inactive) each time.
Take `CC(=O)OCCCCn1cc(Cn2ccc(=O)n(Cc3cn(CCCCOC(C)=O)nn3)c2=O)nn1`: the GI50 in assay [1], in assay [2], in [17], in assay [4], in assay [5] and in assay [6] was > 100 µM (inactive) throughout. Also, the GI50 in assay [7], in [8], in assay [9], in assay [10], in [11] and in assay [12] was > 100 µM (inactive) in each case. For the same compound, the GI50 in [13], in [19], in assay [15] and in assay [16] was > 100 µM (inactive) throughout.
For `COc1ccc(C2SCC(=O)N2NC(=O)c2ccc(NC(C)=O)cc2)cc1` (centres undefined), the GI50 in [1] was 38 µM (inactive); in assay [2] it was > 100 µM (inactive); in assay [17], > 100 µM (inactive); in assay [3], > 100 µM (inactive); in [4] it was 74.1 µM (inactive); in [5], > 100 µM (inactive). Further, the GI50 in assay [6], in assay [7], in assay [9], in assay [10], in assay [11] and in assay [12] was > 100 µM (inactive) in each case. Moreover, the GI50 in [13], in assay [19], in [15] and in assay [16] was > 100 µM (inactive) throughout.
Take `Cc1ccc(NC(=O)CC(=O)N2N=C(c3ccccc3)C(/N=N/c3ccc(S(=O)(=O)CCOS(=O)(=O)O)cc3)C2=O)cc1` (centres undefined): the GI50 in [1] was > 100 µM (inactive); in [2] it was 23.6 µM (inactive); in assay [17], 65.9 µM (inactive); in assay [3], > 100 µM (inactive); in assay [18], > 100 µM (inactive); in [4], > 100 µM (inactive). The GI50 in assay [5], in assay [6], in assay [7], in assay [8], in assay [9] and in [10] was > 100 µM (inactive) in each case. Further, the GI50 in assay [12] was 77.6 µM (inactive); in assay [13], 41.6 µM (inactive); in assay [19], > 100 µM (inactive); in [14] it was 58.6 µM (inactive); in assay [15], > 100 µM (inactive); in [16], > 100 µM (inactive).
On to `CSc1nncc2[nH]cnc12`, for which the GI50 in assay [2], in assay [17], in assay [3], in assay [18], in assay [4] and in assay [5] was > 100 µM (inactive) in each case. Besides, the GI50 in assay [6], in [7], in assay [9], in assay [10], in assay [11] and in [12] was > 100 µM (inactive) in each case. Moreover, the GI50 in [13], in assay [19], in assay [15] and in assay [16] was > 100 µM (inactive) throughout.
Regarding `CC(C)=CCC/C(C)=C/CCC(C(=O)COCc1ccccc1)P1(=O)OC(C)(C)CN1C(C)(C)C` (centres undefined), the GI50 was 86.5 µM (inactive) in assay [2]; 33.8 µM (inactive) in assay [17]; 33.2 µM (inactive) in assay [3]; > 100 µM (inactive) in [4]; > 100 µM (inactive) in [5]; 35.6 µM (inactive) in assay [6]. In addition, the GI50 in [7] is 62.1 µM (inactive); in assay [8], 27.5 µM (inactive); in assay [9], 93.5 µM (inactive); in assay [10], > 100 µM (inactive); in [11], 31.8 µM (inactive); in [12], > 100 µM (inactive). Also, the GI50 in assay [13] is 91.4 µM (inactive); in assay [14] it was 32.6 µM (inactive); in assay [15], 33.1 µM (inactive); in [16] it was 47.6 µM (inactive).
Regarding `O=S(=O)(c1ccccc1)n1c(C(O)c2ccccc2)cc2ccccc21` (centres undefined), the GI50 is 12.7 µM (inactive) in assay [1]; 18.9 µM (inactive) in assay [2]; 21.2 µM (inactive) in assay [17]; 13.4 µM (inactive) in assay [3]; 11.4 µM (inactive) in assay [18]; 15.8 µM (inactive) in assay [4]. Also, the GI50 in [5] was 15.7 µM (inactive); in assay [6] it was 14.5 µM (inactive); in assay [7] it was 19.6 µM (inactive); in [8], 30.1 µM (inactive); in [9] it was 14.9 µM (inactive); in assay [10], 17.3 µM (inactive). Besides, the GI50 was 21.3 µM (inactive) in [11]; 17.9 µM (inactive) in [12]; 15.5 µM (inactive) in assay [13]; > 100 µM (inactive) in [19]; 16.3 µM (inactive) in assay [15]; 14.6 µM (inactive) in [16].
Regarding `Cc1cc(S(=O)(=O)NC2=NCCCN2)c(S)cc1Cl`, the GI50 is > 10 µM (inactive) in [17]; 20.8 µM (inactive) in assay [3]; 22.1 µM (inactive) in assay [18]; 0.721 µM (active) in [4]; 33.8 µM (inactive) in [5]; 21.6 µM (inactive) in [6]. In addition, the GI50 in assay [7] was 56.4 µM (inactive); in assay [8], 22.1 µM (inactive); in assay [9], 29.6 µM (inactive); in assay [10], 26.9 µM (inactive); in assay [11] it was 25.2 µM (inactive); in assay [12], 54.3 µM (inactive). Moreover, the GI50 is 27.5 µM (inactive) in assay [13], 22 µM (inactive) in assay [14], 87.1 µM (inactive) in assay [15] and 17.9 µM (inactive) in assay [16].
